The term inhibition denotes the change of the read-out against control, counted positive when it falls. A word on the IC50: it is the midpoint of a concentration-inhibition curve. Read a high IC50 as weaker potency.

The source of these data is PMC6983023, “Identification of Potential Dipeptidyl Peptidase (DPP)-IV Inhibitors among Moringa oleifera Phytochemicals by Virtual Screening, Molecular Docking Analysis, ADME/T-Based Prediction, and In Vitro Analyses” (Molecules, 2020).

Experiment [1] has as its target T1, DPP-IV (Homo sapiens, UniProt P27487).
T1 construct: purchased Abnova Co. Ltd. (Taipei, Taiwan) KA1311
Description: In vitro DPP-IV inhibition assay (fluorescence, Abnova kit KA1311). Type of experiment: biochemical. The note with it: for inhibition at 100 µM: compound concentration 100 μM, read-out: inhibition rate; for IC50: fluorescence detection, 37 °C, 30 min. As to the method:
A DPP-IV Inhibitor Screening Assay Kit (KA1311) was purchased from Abnova Co. Ltd. (Taipei, Taiwan). […] The in vitro inhibitory activity of each compound against DPP-IV was determined based on a fluorescence detection method. […] Additionally, a “100% initial activity well” (10 μL dimethyl sulfoxide [DMSO], 30 μL DPP assay buffer, and 10 μL DPP-IV) and a “background well” (10 μL DMSO and 40 μL DPP assay buffer) were prepared. Next, 50 μL of DPP was added to each well and incubated at 37 °C for 30 min. A FlexStation 3 multifunctional microplate reader (Molecular Devices, Sunnyvale, CA, USA) was used to detect the fluorescence value (excitation wavelength: 350–360 nm; emission wavelength: 450–465 nm). […] IC50 values were then calculated using GraphPad Prism 5 (GraphPad Software, La Jolla, CA, USA).

Details of experiment [2]: method as in doi:10.1002/ptr.2650080207. The note with it: cited from earlier work.
Experiment [3] relates to Cathepsin L. The arrangement: method as in PMID 11440138. The note with it: cited from earlier work.
Experiment [4] deals with Cathepsin B. Further details: method as in PMID 11440138. Particulars: cited from earlier work.
For experiment [5], the system named is c-Jun N-terminal kinase (JNK) and p38 pathways. The arrangement: method as in PMID 25448500. Particulars: induced by LPS stimulation; cited from earlier work.
Experiment [6] relates to arthritis in rats. The arrangement: method as in PMID 11440138. The note with it: cited from earlier work.

T1 sequence (P27487 whole entry): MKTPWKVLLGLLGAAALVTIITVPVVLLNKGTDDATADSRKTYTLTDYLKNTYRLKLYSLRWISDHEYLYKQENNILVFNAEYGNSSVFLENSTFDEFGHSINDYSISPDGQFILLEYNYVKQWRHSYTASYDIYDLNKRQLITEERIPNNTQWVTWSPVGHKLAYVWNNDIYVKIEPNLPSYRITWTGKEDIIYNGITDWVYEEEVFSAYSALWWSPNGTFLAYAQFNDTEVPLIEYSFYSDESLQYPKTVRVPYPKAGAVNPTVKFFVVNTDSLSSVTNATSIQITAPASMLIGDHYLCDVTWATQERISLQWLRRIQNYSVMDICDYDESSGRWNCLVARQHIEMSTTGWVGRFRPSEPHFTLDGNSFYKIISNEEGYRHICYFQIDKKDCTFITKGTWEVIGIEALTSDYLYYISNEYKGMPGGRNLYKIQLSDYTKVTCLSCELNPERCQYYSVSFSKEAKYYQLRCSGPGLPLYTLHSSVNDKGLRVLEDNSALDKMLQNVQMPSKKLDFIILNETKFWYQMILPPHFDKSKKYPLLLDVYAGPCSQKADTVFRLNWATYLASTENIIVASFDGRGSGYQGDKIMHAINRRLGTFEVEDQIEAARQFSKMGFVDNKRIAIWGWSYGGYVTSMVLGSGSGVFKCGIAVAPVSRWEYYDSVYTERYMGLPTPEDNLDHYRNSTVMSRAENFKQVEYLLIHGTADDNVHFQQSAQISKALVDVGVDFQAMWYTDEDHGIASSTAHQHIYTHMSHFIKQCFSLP

Take `CCOC(=O)NCc1ccc(O[C@@H]2O[C@@H](C)[C@H](O)[C@@H](O)[C@H]2O)cc1` [Compound 1, O-Ethyl-4-[(α-L-rhamnosyloxy)benzyl] carbamate]: in experiment [1], the inhibition at 100 µM is 71.2% and the IC50 stood at 0.798 µM. Moreover, the hypotensive effect entry in experiment [2] was “a certain hypotensive effect”.

For `C[C@@H]1O[C@@H](Oc2ccc(CN=C=S)cc2)[C@H](O)[C@H](O)[C@H]1O` [Compound 2, 4-[(α-L-rhamnosyloxy)benzyl] Isothiocyanate], in experiment [1], the inhibition at 100 µM was 30.9% and the midpoint of inhibition, the IC50, lay at 158 µM.

For `CC(=O)OC[C@H](Cc1ccccc1)NC(=O)[C@H](Cc1ccccc1)NC(=O)c1ccccc1` [Compound 3, Aurantiamide acetate], in experiment [1], the inhibition at 100 µM came to 23.5% and the IC50 is 191 µM. Moreover, the “Cathepsin L inhibition” value in experiment [3] is “inhibiting”. For the same compound, in experiment [4], the “Cathepsin B inhibition” value was “inhibiting”. For the same compound, the “inhibition of JNK and p38 pathways” value in experiment [5] is listed as “inhibit”. In addition, the effect on arthritis entry in experiment [6] is given as “relieves arthritis”.
